How the values were obtained:
Nurr1 LBD homodimer = target: T1, Nurr1 LBD homodimer (Homo sapiens, UniProt P43354); experiment: Nurr1 homodimerization assay (HTRF); assay type: biochemical; conditions: Tb3+-cryptate labeled Nurr1 LBD and sGFP labeled Nurr1 LBD
T1 construct: Biotinylated recombinant Nurr1 LBD protein and sGFP-Nurr1 LBD protein (FRET acceptor) were expressed and purified as described previously[28]; sGFP-Nurr1 LBD protein (FRET acceptor) were expressed and purified as described previously[28]; made in house
T1 sequence (P43354 360-595 limits assumed): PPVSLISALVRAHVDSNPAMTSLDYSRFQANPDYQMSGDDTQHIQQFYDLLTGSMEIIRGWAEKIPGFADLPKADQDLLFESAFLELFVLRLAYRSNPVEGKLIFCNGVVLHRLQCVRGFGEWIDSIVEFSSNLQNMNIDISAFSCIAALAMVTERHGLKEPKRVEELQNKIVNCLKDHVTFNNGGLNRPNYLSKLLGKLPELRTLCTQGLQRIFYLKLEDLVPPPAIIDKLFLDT
Method: Modulation of Nurr1 LBD homodimerization by 32 was studied in a homogenous time-resolved fluorescence resonance energy transfer (HTRF) based assay. Biotinylated recombinant Nurr1 LBD protein and sGFP-Nurr1 LBD protein (FRET acceptor) were expressed and purified as described previously. […] Free sGFP was added to keep the total GFP content stable at 0.5 μM. Assay solutions were prepared in HTRF assay buffer (25 mM HEPES pH 7.5, 10% (m/v) glycerol, 5 mM DTT) supplemented with 0.1% (w/v) CHAPS as well as 1% DMSO with 32 at fixed concentrations or DMSO alone as negative control (apo). The FRET donor complex formed from biotinylated Nurr1 LBD (final concentration 0.188 nM) and Tb-SA (0.375 nM) was kept constant while the concentration of sGFP-labeled protein was varied. Samples were equilibrated at RT for 2 h before fluorescence intensities (FI) after excitation at 340 nm were recorded at 520 nm for sGFP acceptor fluorescence and 620 nm for Tb-SA donor fluorescence on a Tecan SPARK plate reader (Tecan Group Ltd.). FI520 nm was divided by FI620 nm and multiplied with 10,000 to give a dimensionless HTRF signal.

[1] = test system: N27 rat dopaminergic neural cells; experiment: Nurr1-regulated gene expression (qPCR); assay type: cell-based; conditions: N27 cells, 0.3, 1 or 3 μM, 21 h, referenced to GAPDH
rDHODH = target: T2, rDHODH (Rattus norvegicus, UniProt Q63707); experiment: rat DHODH inhibition assay; assay type: biochemical, rats
T2 construct: using an N-terminally truncated recombinant DHODH enzyme as described previously[20]
T2 sequence (Q63707 31-395): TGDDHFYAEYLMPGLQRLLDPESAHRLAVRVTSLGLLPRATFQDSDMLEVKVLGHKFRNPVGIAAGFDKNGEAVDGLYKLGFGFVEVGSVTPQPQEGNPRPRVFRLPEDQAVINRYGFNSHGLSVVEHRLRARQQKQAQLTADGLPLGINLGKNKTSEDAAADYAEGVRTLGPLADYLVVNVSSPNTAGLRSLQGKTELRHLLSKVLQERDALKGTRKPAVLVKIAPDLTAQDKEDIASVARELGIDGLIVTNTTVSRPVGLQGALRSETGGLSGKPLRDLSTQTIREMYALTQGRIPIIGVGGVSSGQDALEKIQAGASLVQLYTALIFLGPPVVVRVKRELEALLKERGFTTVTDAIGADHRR
Method: Inhibition of DHODH was measured in vitro using an N-terminally truncated recombinant DHODH enzyme as described previously. The final assay mixture contained 60 μM 2,6-dichloroindophenol, 50 μM decylubiquinone, 100 μM dihydroorotate, and the DHODH protein whose concentration was adjusted in a way that an average slope of approx. 0.2 AU/min served as the positive control (no inhibitor). Measurements were performed in 50 mM TrisHCl, 150 mM KCl, and 0.1% Triton X-100 at pH 8.0 and at 30°C with at least six different concentrations of a test compound. The reaction was started by adding dihydroorotate and measuring the absorption at 600 nm for 2 min. Each test compound concentration used for IC50 calculation was tested in at least three independent experiments.

Nur77 = target: T3, Nur77 (Homo sapiens, UniProt P22736); experiment: Gal4-Nur77 hybrid reporter gene assay; assay type: cell-based
T3 construct: expressed in transfected cells; host or cells: HEK293T
T3 sequence (P22736 360-595 limits assumed): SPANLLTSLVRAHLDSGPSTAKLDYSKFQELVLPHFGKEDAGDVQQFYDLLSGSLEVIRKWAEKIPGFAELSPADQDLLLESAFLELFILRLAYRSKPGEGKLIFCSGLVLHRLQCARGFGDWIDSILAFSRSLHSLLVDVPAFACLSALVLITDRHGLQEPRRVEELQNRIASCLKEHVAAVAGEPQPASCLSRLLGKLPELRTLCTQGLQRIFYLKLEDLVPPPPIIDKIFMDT
Method: NR modulation was determined in Gal4 hybrid reporter gene assays in HEK293T cells (German Collection of Microorganisms and Cell Culture GmbH, DSMZ) using pFR-Luc (Stratagene, La Jolla, CA, USA; reporter), pRL-SV40 (Promega, Madison, WI, USA; internal control) and pFA-CMV-hNR-LBD[47],[48] plasmids coding for the hinge region and ligand binding domain of the canonical isoform of the respective NR. Cells were cultured in Dulbecco’s modified Eagle’s medium (DMEM), high glucose supplemented with 10% fetal calf serum (FCS), sodium pyruvate (1 mM), penicillin (100 U/mL), and streptomycin (100 μg/mL) at 37°C and 5% CO2 and seeded in 96-well plates (3×10^4 cells/well). […] Five hours after transfection, cells were incubated with the test compounds in Opti-MEM supplemented with penicillin (100 U/mL), streptomycin (100 μg/mL) and 0.1% DMSO for 16 h before luciferase activity was measured using the Dual-Glo Luciferase Assay System (Promega) according to the manufacturer’s protocol on a Tecan Spark luminometer (Tecan Deutschland GmbH, Crailsheim, Germany). Firefly luminescence was divided by Renilla luminescence and multiplied by 1000 resulting in relative light units (RLU) to normalize for transfection efficiency and cell growth. […]

COc1cccc(-c2ccc(NC(=O)C3=C(c4nn[nH]n4)CCC3)c(F)c2)c1 [compound 32, N-{3-Fluoro-3’-methoxy-[1,1'-biphenyl]-4-yl}-2-(2H-tetrazol-5-yl)cyclopent-1-ene-1-carboxamide]
impact on Nurr1 dimer formation (Nurr1 LBD homodimer): robustly diminished Nurr1 dimer formation | BDNF mRNA expression [1]: enhanced expression | BIRC5 mRNA expression [1]: robust induction | CCND2 mRNA expression [1]: enhanced expression | CRMP4 mRNA expression [1]: enhanced expression | FLRT2 mRNA expression [1]: enhanced expression | SOD2 mRNA expression [1]: robust induction | Sesn3 mRNA expression [1]: robust induction | TH mRNA expression [1]: enhanced the expression | XIAP mRNA expression [1]: robust induction | inhibition at 100 µM (rDHODH): 64 ± 2% | EC50 (Nur77): 160 ± 30 nM | fold activation (Nur77) (Nur77): 1.9 fold

Source: PMC7617969, “Carboxylic Acid Bioisosteres Boost Nurr1 Agonist Selectivity” (Journal of medicinal chemistry, 2025)
